This note sets out measurements from patent publication US10815238B2, “Antimicrobial compounds and methods of making and using the same” (BIOVERSYS AG, priority 2013, dated 2020).

Structures are written as SMILES.

By MIC is commonly meant the least concentration at which growth counts as inhibited.

The test system of this assay is Eschericia coli (E. coli) strain ATCC25922. Description: Standard microdilution assay, MIC against E. coli ATCC25922. In kind it is cell-based. The following applies: Escherichia coli; E. coli strain ATCC25922, standard microdilution assay; cutoff 16 micrograms/mL; read-out: MIC E. Coli. Here is the method: The in vitro activity of the compounds of the present invention can be determined. Antimicrobial testing is typically performed to determine the minimum inhibitory concentration (MIC). Minimum inhibitory concentrations (MICs) are determined by the microdilution method in a final volume of 100 μl according to protocols outlined by The Clinical and Laboratory Standards Institute (CLSI). Performance standards for reference strains are assessed within the same experimental design to maintain quality control. See, for example, Clinical Laboratory Standards Institute: Methods for dilution antimicrobial susceptibility tests for bacteria that grow aerobically M7-A8. Approved Standard-Eighth Edition. Wayne, Pa.: CLSI; December 2008; and Clinical Laboratory Standards Institute: Performance Standards for Antimicrobial Susceptibility Testing M100-S20; Approved Standard-Twentieth Edition. Wayne, Pa.: CLSI; June 2010.
The compounds of the present invention were tested for antimicrobial activity. The Compounds 1-582 were run against Eschericia coli (E. coli) strain ATCC25922 and Compounds 320-582 were run against Staphylococcus aureus (S. aureus) 11540 strain using a standard microdilution assay to determine minimum inhibitory concentrations (MICs). […] It will be recognized by one skilled in the art that the compounds can be assessed against other bacterial organisms and that the presentation of data for activity against Eschericia coli and Staphylococcus aureus are illustrative and in no way is intended to limit the scope of the present invention. The compounds of the present invention can be assayed against a range of other microorganisms depending upon the performance activity desired to be gathered. Furthermore, the “+” and “−” representation and the selection of a cutoff value of 16 micrograms/mL is also illustrative and in no way is intended to limit the scope of the present invention.
(In general: Broth dilution looks for growth in wells or tubes with falling amounts of substance.)
For the compound `C[C@H](N)CCCc1cc(Cl)c(F)c(-c2cc3cn(-c4ccc(CNCC[C@@H](C)NC(=N)N)cc4)c(=O)nc3[nH]2)c1` [Compound 188], the MIC is less than 16 µg/mL. The value for `C[C@H](N)CCCc1cc(SC(F)(F)F)cc(-c2cc3cn(-c4ccc([C@H](Cc5c[nH]nn5)NCCCNC(=N)N)cc4)c(=O)nc3[nH]2)c1` [Compound 48] was less than 16 µg/mL. With `CNCCCN[C@@H](C)c1ccc(-n2cc3cc(-c4cc(CCC[C@H](C)N)cc(Cl)c4F)[nH]c3nc2=O)cc1` [Compound 208], the MIC is less than 16 µg/mL.

In the case of `C[C@H](N)CCCc1cc(-c2cc3cn(-c4ccc(CN5CCCN(C(=N)N)CC5)cc4)c(=O)nc3[nH]2)cc(C(F)(F)F)c1` [Compound 52], the MIC is less than 16 µg/mL. The value for `C[C@H](N)CCCc1cc(Cl)c(F)c(-c2cc3cn(-c4ccc(CNCC[C@H](CN)NC(=N)N)cc4)c(=O)nc3[nH]2)c1` [Compound 203] was less than 16 µg/mL; that for `C=CC[C@@H](N)CCNCc1ccc(-n2cc3cc(-c4cc(CCC[C@H](C)N)cc(Cl)c4F)[nH]c3nc2=O)cc1` [Compound 206] was less than 16 µg/mL. Under `C[C@H](N)CCCc1cc(SC(F)(F)F)cc(-c2cc3cn(-c4ccc(CNCC(=O)O)cc4)c(=O)nc3[nH]2)c1` [Compound 116] stands more than 16 µg/mL; under `C=CCC[C@H](NCCCNC(=N)N)c1ccc(-n2cc3cc(-c4cc(CCC[C@H](C)N)cc(Cl)c4F)[nH]c3nc2=O)cc1` [Compound 81], less than 16 µg/mL; under `CC(C)[C@H](N)CCNCc1ccc(-n2cc3cc(-c4cc(CCC[C@H](C)N)cc(Cl)c4F)[nH]c3nc2=O)cc1` [Compound 155], less than 16 µg/mL. The value for `C[C@H](N)CCCc1cc(OC(F)(F)F)c(F)c(-c2cc3cn(-c4ccc([C@H](C)NCC[C@@H](CCO)NC(=N)N)cc4)c(=O)nc3[nH]2)c1` [Compound 248] was less than 16 µg/mL; that for `N=C(N)NCCCNCc1ccc(-n2cc3cc(-c4cc(OC(F)(F)F)cc([C@H]5C[C@H](N)CCO5)c4)[nH]c3nc2=O)cc1` [Compound 35] was less than 16 µg/mL; that for `N=C(N)NCCCN[C@@H](CCF)c1ccc(-n2cc3cc(-c4cc(CCC[C@@H](N)CF)cc(Cl)c4F)[nH]c3nc2=O)cc1` [Compound 168] was less than 16 µg/mL. As for `C[C@H](N)CCCc1cc(Cl)c(F)c(-c2cc3cn(-c4ccc([C@H](C)NCCCN)cc4)c(=O)nc3[nH]2)c1` [Compound 107], the MIC is less than 16 µg/mL.

With `C[C@H](NCCCNC(=N)N)c1ccc(-n2cc3cc(-c4cc(CCC[C@@H](N)CO)cc(OC(F)(F)F)c4F)[nH]c3nc2=O)cc1` [Compound 243], the MIC is less than 16 µg/mL. With `COC(=O)CCNCc1ccc(-n2cc3cc(-c4cc(CCC[C@H](C)N)cc(SC(F)(F)F)c4)[nH]c3nc2=O)cc1` [Compound 141], the MIC was more than 16 µg/mL. The value for `C[C@H](N)CCCc1cc(Cl)c(F)c(-c2cc3cn(-c4ccc([C@@H](N)CCNc5nccs5)cc4)c(=O)nc3[nH]2)c1` [Compound 153] was more than 16 µg/mL; that for `CCOC(=O)N[C@@H](C)CCCc1cc(-c2cn3cc(-c4ccc([C@H](C)NCCCNC(=N)N)cc4)c(=O)nc3[nH]2)cc(C(F)(F)F)c1` [Compound 299] was less than 16 µg/mL; that for `C[C@H](N)CCCc1cc(Cl)c(F)c(-c2cc3cn(-c4ccc([C@H](CC5=CCCN(C)C5)NCCCNC(=N)N)cc4)c(=O)nc3[nH]2)c1` [Compound 105] was less than 16 µg/mL. Under `C[C@H](N)CCCc1cc(-c2cc3cn(-c4ccc([C@H]5COC(=O)N5CCCNC(=N)N)cc4)c(=O)nc3[nH]2)cc(C(F)(F)F)c1` [Compound 98] stands less than 16 µg/mL; under `C[C@H](N)CCCc1cc(OC(F)(F)F)c(F)c(-c2cc3cn(-c4ccc([C@H](C)NCC[C@@H](CCCO)NC(=N)N)cc4)c(=O)nc3[nH]2)c1` [Compound 240], less than 16 µg/mL; under `Cc1cc(F)c(-c2cc3cn(-c4ccc([C@H](C)NCCCNC(=N)N)cc4)c(=O)nc3[nH]2)cc1CCC[C@H](C)N` [Compound 33], less than 16 µg/mL.

On to `C[C@H](N)CCCc1cc(SC(F)(F)F)cc(-c2cc3cn(-c4ccc(CNCc5ccncc5)cc4)c(=O)nc3[nH]2)c1` [Compound 128], for which the MIC was more than 16 µg/mL.

As to `COc1ccc(CNCc2ccc(-n3cc4cc[nH]c4nc3=O)cc2)cn1` [Compound 144], the MIC is more than 16 µg/mL. For the compound `C[C@H](N)CCCc1cc(SC(F)(F)F)cc(-c2cc3cn(-c4ccc([C@@H](N)CCNc5nccs5)cc4)c(=O)nc3[nH]2)c1` [Compound 157], the MIC was more than 16 µg/mL. The value for `C[C@H](N)CCCc1cc(Cl)c(F)c(-c2cc3cn(-c4ccc(C[C@H](N)CCCNC(=N)N)cc4)c(=O)nc3[nH]2)c1` [Compound 230] was less than 16 µg/mL; that for `C[C@H](N)CCCc1cc(-c2cc3cn(-c4ccc([C@H](C)NCCCNC(=N)N)cc4)c(=O)nc3[nH]2)c(F)cc1Cl` [Compound 10] was less than 16 µg/mL; that for `C[C@H](N)CCCc1cc(Cl)c(F)c(-c2[nH]c3nc(=O)n(-c4ccc([C@H](C)NCCCNC(=N)N)cc4)cc3c2Cl)c1` [Compound 290] was less than 16 µg/mL. The value for `C=C[C@H](CCNCc1ccc(-n2cc3cc(-c4cc(CCC[C@H](C)N)cc(Cl)c4F)[nH]c3nc2=O)cc1)NC(=N)N` [Compound 180] was less than 16 µg/mL; that for `COC[C@H](N)CCCc1cc(Cl)c(F)c(-c2cc3cn(-c4ccc([C@H](C)NCCCNC(=N)N)cc4)c(=O)nc3[nH]2)c1` [Compound 171] was less than 16 µg/mL. `C[C@H](N)CCCc1cc(-c2cc3cn(-c4ccc([C@H](C)N[C@H](C)CCNC(=N)N)cc4)c(=O)nc3[nH]2)cc(C(F)(F)F)c1` [Compound 226]: the MIC is less than 16 µg/mL.

For the compound `COc1ccc(Cn2cc(CNCc3ccc(-n4cc5cc[nH]c5nc4=O)cc3)nn2)cc1` [Compound 131], the MIC is more than 16 µg/mL.

As to `C[C@H](N)CCCc1cc(SC(F)(F)F)cc(-c2cc3cn(-c4ccc(CNCc5cccnc5)cc4)c(=O)nc3[nH]2)c1` [Compound 113], the MIC was more than 16 µg/mL. The value for `C[C@H](N)CCCc1cc(Cl)c(F)c(-c2cc3cn(-c4ccc(CNCC[C@@H](N)CN)cc4)c(=O)nc3[nH]2)c1` [Compound 182] was less than 16 µg/mL; that for `C[C@H](N)CCCc1cc(Cl)c(F)c(-c2cc3cn(-c4ccc(CN[C@@H](CO)CCNC(=N)N)cc4)c(=O)nc3[nH]2)c1` [Compound 273] was less than 16 µg/mL; that for `C=CC[C@@H](NCCCNC(=N)N)c1ccc(-n2cc3cc(-c4cc(CCC[C@H](C)N)cc(SC(F)(F)F)c4)[nH]c3nc2=O)cc1` [Compound 1] was less than 16 µg/mL. Under `C[C@H](N)CCCc1cc(Cl)c(F)c(-c2cc3cn(-c4ccc([C@H](C)NCC[C@H](CCN)NC(=N)N)cc4)c(=O)nc3[nH]2)c1` [Compound 312] stands less than 16 µg/mL. Under `CC[C@H](NCCCNC(=N)N)c1ccc(-n2cc3cc(-c4cc(CCC[C@H](C)N)cc(OC(F)(F)F)c4F)[nH]c3nc2=O)cc1` [Compound 227] stands less than 16 µg/mL; under `C[C@H](N)CCCc1cc(Cl)c(F)c(-c2cc3c([nH]2)NC(=O)N(c2ccc([C@H](C)NCCCNC(=N)N)cc2)C3)c1` [Compound 246], less than 16 µg/mL. For the compound `C[C@H](N)CCCc1cc(Cl)c(F)c(-c2cc3cn(-c4ccc([C@H](C)NCC[C@H](Cn5cc(CN)nn5)NC(=N)N)cc4)c(=O)nc3[nH]2)c1` [Compound 301], the MIC is less than 16 µg/mL. In the case of `C[C@H](N)CCCc1cc(OC(F)(F)F)c(F)c(-c2cc3cn(-c4ccc([C@H](C)NCC[C@H](CO)NC(=N)N)cc4)c(=O)nc3[nH]2)c1` [Compound 263], the MIC was less than 16 µg/mL. Under `C[C@H](N)CCCc1cc(OC(F)(F)F)c(F)c(-c2cc3cn(-c4ccc([C@H](C)NCC[C@H](Cn5ccnn5)NC(=N)N)cc4)c(=O)nc3[nH]2)c1` [Compound 294] stands less than 16 µg/mL; under `C[C@H](N)CCCc1cc(-c2cc3cn(-c4ccc([C@@H](CCN)NCCCNC(=N)N)cc4)c(=O)nc3[nH]2)cc(C(F)(F)F)c1` [Compound 6], less than 16 µg/mL.

For the compound `C[C@H](NCCCNC(=N)N)c1ccc(-n2cc3cc(-c4cc(CCC[C@H](C)NC(=O)CN)cc(Cl)c4F)[nH]c3nc2=O)cc1` [Compound 72], the MIC was less than 16 µg/mL.

`C[C@H](N)CCCc1cc(Cl)c(F)c(-c2cc3cn(-c4ccc(CNCC(=N)N)cc4)c(=O)nc3[nH]2)c1` [Compound 169]: the MIC was more than 16 µg/mL. The value for `C[C@H](N)CCCc1cc(Cl)cc(-c2cc3cn(-c4ccc([C@H](C)NCCCNC(=N)N)cc4)c(=O)nc3[nH]2)c1` [Compound 27] was less than 16 µg/mL; that for `C[C@H](N)CCCc1cc(OC(F)(F)F)c(F)c(-c2cc3cn(-c4ccc([C@H](C)NCC[C@@H](CCCN)NC(=N)N)cc4)c(=O)nc3[nH]2)c1` [Compound 283] was less than 16 µg/mL.

For `C[C@H](N)CCCc1cc(Cl)c(F)c(-c2cc3cn(-c4ccc([C@H](N)C(=O)NCCNC(=N)N)cc4)c(=O)nc3[nH]2)c1` [Compound 253], the MIC was less than 16 µg/mL. The value for `C[C@H](N)CCCc1cc(Cl)c(F)c(-c2cc3cn(-c4ccc([C@H](C)NCC[C@H](C)NC(=N)N)cc4)c(=O)nc3[nH]2)c1` [Compound 222] was less than 16 µg/mL. As to `O=c1nc2[nH]ccc2cn1-c1ccc(CNCc2c[nH]nn2)cc1` [Compound 129], the minimum inhibitory concentration (MIC) was more than 16 µg/mL.
